What was measured:
[1] = target: Vascular endothelial growth factor receptor 2 (Homo sapiens, UniProt P35968); experiment: Inhibition of VEGFR2
[2] = Inhibition of CDK1/Cyclin B by Flashplate assay; set-up: species or system Homo sapiens

Chain of Vascular endothelial growth factor receptor 2 (P35968 whole entry): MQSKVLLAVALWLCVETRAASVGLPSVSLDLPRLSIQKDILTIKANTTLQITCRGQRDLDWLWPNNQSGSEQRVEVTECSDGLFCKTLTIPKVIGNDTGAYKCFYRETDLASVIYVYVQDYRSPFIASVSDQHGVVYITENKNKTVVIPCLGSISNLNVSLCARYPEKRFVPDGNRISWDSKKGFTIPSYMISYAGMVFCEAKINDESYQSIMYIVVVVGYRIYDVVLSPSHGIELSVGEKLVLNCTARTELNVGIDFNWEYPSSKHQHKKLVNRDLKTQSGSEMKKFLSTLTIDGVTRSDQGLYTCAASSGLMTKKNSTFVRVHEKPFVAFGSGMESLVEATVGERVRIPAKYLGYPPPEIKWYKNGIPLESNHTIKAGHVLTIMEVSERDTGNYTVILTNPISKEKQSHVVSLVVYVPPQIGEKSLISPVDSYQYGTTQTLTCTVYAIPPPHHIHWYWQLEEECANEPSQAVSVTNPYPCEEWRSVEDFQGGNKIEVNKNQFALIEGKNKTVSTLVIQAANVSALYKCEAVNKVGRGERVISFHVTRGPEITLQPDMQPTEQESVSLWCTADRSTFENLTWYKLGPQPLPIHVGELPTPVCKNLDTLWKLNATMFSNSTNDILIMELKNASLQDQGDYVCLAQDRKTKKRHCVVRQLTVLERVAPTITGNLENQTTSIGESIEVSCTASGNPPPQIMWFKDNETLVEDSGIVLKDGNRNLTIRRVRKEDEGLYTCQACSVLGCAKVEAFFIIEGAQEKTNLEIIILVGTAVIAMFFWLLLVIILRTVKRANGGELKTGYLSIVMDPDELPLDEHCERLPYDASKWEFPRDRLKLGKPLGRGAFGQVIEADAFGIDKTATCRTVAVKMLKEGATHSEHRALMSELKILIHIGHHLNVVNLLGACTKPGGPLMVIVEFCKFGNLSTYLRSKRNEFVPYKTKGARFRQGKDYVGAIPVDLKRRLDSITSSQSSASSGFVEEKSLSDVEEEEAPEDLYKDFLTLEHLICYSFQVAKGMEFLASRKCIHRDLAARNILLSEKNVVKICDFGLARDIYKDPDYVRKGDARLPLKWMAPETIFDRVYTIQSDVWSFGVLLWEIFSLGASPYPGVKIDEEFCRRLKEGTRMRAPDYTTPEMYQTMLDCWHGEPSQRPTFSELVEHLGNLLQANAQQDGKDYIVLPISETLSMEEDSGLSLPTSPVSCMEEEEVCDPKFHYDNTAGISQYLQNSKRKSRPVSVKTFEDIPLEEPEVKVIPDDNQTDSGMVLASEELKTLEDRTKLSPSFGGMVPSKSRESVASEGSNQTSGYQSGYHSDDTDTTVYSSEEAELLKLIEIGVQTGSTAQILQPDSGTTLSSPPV

IC50 [1]: 1.46 µM
IC50 [2]: 0.023 µM
SMILES: c1ccc2c(-c3cnc4[nH]nc(-c5nc6ccccc6[nH]5)c4c3)cncc2c1

From ChEMBL document CHEMBL1148847, “Synthesis of 3-(1H-benzimidazol-2-yl)-5-isoquinolin-4-ylpyrazolo[1,2-b]pyridine, a potent cyclin dependent kinase 1 (CDK1) inhibitor” (Bioorg Med Chem Lett, 2007)
